The record followed here is publication PMC7370187, “Screening of an Epigenetic Drug Library Identifies 4-((hydroxyamino)carbonyl)-N-(2-hydroxyethyl)-N-Phenyl-Benzeneacetamide that Reduces Melanin Synthesis by Inhibiting Tyrosinase Activity Independently of Epigenetic Mechanisms” (International Journal of Molecular Sciences, 2020).

pIC50: −log10 of the molar value. “Also recorded” adds a separate entry of the source.

The test system of one series is B16-F10 cells. The experiment in a line: Cell viability assay (MTT). The settings on record: 48 h. In kind it is cell-based, murine. As to the method: Cell viability was evaluated using 3-(4,5-dimethylthiazol-2-yl)-2,5-diphenyltetrazolium bromide (MTT). After treatment of B16-F10 cells with each drug for 48 h, cells were washed with phosphate-buffered saline (PBS) and incubated for 2 h in the culture medium containing 1 mg∙mL^−1 MTT (Amresco, Solon, OH, USA). The medium was discarded by aspiration, the formazan dye deposited inside the cells was extracted with isopropanol, and absorbance was measured at 595 nm using a Spectrostar Nano microplate reader.

Series [1] concerns tyrosinase (TYR) activity in B16-F10 cells. Put plainly: Cellular TYR activity assay (lysates of treated cells). In kind it is cell-based, murine. The settings on record: 100 nM α-MSH, 24 h, cell lysates. As to the method:
After B16-F10 cells were treated with drug and/or α-MSH, the TYR activity of cell extracts was determined by an indirect spectrophotometric method to monitor dopachrome formation with L-tyrosine plus L-DOPA as the substrates. Total cellular protein was extracted from the treated cells using a lysis buffer of 10 mM Tris-HCl buffer (pH 7.4) containing 120 mM NaCl, 25 mM KCl, 2.0 mM EDTA, 1.0 mM EGTA, 0.5% Triton X-100, and a protease inhibitor cocktail (Roche, Mannheim, Germany) at 4 °C, followed by centrifugation at 13,000× g for 15 min. The TYR activity assay mixture (200 μL) consisting of 100 mM sodium phosphate buffer (pH 6.8), 1.0 mM L-tyrosine, and 42 μΜ L-DOPA was incubated with 40 μg cellular protein extract at 37 °C, and changes in absorbance at 475 nm over time were measured using a Spectrostar Nano microplate reader.

The target in another series is T1, murine TYR (Mus musculus, UniProt P11344).
T1 construct: One is the protein extract of B16F10 cells stimulated by α-MSH and thus expresses a high amount of TYR; endogenous in cells; host or cells: B16F10 murine melanoma cells stimulated with α-MSH for 24 h; Triton X-100 lysate supernatant
T1 sequence (P11344 19-533): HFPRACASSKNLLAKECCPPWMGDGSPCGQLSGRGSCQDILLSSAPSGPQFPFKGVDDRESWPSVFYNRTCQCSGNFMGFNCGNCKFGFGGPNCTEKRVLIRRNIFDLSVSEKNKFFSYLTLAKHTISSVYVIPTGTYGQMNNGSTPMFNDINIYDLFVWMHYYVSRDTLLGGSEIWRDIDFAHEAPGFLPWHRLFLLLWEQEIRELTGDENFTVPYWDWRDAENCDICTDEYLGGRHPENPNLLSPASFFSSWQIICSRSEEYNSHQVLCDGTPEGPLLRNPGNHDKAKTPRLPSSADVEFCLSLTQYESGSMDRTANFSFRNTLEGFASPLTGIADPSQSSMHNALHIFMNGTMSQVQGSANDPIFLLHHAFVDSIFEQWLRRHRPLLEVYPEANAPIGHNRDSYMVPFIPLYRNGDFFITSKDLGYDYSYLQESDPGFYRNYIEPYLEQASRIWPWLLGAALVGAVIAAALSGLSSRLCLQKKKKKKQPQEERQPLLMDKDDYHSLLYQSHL
Put plainly: In vitro TYR catalytic activity assay, lysate of α-MSH-stimulated B16F10 cells. In kind it is biochemical. As to the method: (§1) To examine the direct effect of a drug on the catalytic activity of TYR, in vitro experiments were undertaken. Lysate of B16F10 cells stimulated with α-MSH for 24 h was used as a murine TYR preparation. Human TYR preparation was the lysate of human embryonic kidney 293 cells constitutively expressing human TYR (HEK293-TYR). […] The TYR activity assay mixture (200 μL) consisted of 100 mM sodium phosphate buffer (pH 6.8), TYR preparation (40 μg protein), a drug at various concentrations, 1.0 mM L-tyrosine, and 42 μΜ L-DOPA. For enzyme kinetic study, the concentrations of L-tyrosine plus L-DOPA were varied while their relative ratio was kept the same as the standard assay condition. […] The reactions were also performed in the absence of a TYR preparation to correct for the effects of non-enzymatic reactions. Enzyme activity was calculated as follows: activity (% control) = (C−D)/(A−B) × 100, where A and B are the absorbance changes of the control group with and without enzyme, respectively, while C and D are the absorbance changes of the test group with and without enzyme, respectively.

In series [2] the test system is B16-F10 murine melanoma cells. The experiment in a line: Screening assay for overall melanin synthesis (OD 400 nm) in α-MSH-stimulated cells. In kind it is cell-based. The settings on record: 100 nM α-MSH, 72 h. The protocol:
For the screening assay, B16-F10 cells were plated in 96-well plates (3 × 10^3 cells per well) and cultured for 24 h. The cells were then treated with a test drug at 1.0 μM for 60 min, and subsequently stimulated with 0.1 μM α-MSH for 72 h. Overall melanin synthesis was estimated by measuring the absorbance of each well (cells plus medium, without cell lysis) at 400 nm using a Spectrostar Nano microplate reader (BMG LABTECH GmbH, Ortenberg, Germany).

A further series concerns the target T2, human TYR (Homo sapiens, UniProt P14679).
T2 construct: expressed in transfected cells; Triton X-100 lysate supernatant
T2 sequence (P14679 19-529): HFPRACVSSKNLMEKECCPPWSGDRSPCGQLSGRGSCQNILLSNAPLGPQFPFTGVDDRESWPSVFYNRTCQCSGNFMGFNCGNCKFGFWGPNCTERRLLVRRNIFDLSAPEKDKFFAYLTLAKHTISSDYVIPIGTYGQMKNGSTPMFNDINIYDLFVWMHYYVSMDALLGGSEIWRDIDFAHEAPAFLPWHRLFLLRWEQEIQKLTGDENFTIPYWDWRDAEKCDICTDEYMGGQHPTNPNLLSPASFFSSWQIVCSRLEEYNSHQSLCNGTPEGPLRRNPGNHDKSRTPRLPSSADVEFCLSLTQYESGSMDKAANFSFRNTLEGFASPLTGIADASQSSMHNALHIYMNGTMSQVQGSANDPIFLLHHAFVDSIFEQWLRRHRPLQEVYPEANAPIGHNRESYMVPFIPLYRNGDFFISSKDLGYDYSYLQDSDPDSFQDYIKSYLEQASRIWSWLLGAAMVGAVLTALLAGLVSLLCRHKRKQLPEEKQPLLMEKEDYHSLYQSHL
The experiment in a line: In vitro TYR catalytic activity assay, lysate of HEK293-TYR cells. In kind it is biochemical. As to the method: as §1

A short description of series [3]: Copper chelating activity assay (pyrocatechol violet). The class given is physicochemical. Particulars: 200 μM test compound, 200 μM copper ions, 200 μM pyrocatechol violet, absorbance 632 nm. As to the method: Copper chelating activity was determined by using pyrocatechol violet (Sigma-Aldrich). […] The reaction mixture containing a potential chelator at varied concentrations, 200 μM CuSO4, and 200 μM pyrocatechol violet was incubated at 25 °C for 20 min, and its absorption spectra were recorded using a Shimadzu UV-1650PC spectrophotometer (Shimadzu Corporation, Kyoto, Japan). Copper chelating activity was evaluated by the change in the absorbance of pyrocatechol violet at 632 nm.

For orientation: pIC50 means −log10 of the IC50, conventionally taken in molar units. For `O=C(NO)c1ccc(CC(=O)N(CCO)c2ccccc2)cc1` [K8, 4-((hydroxyamino)carbonyl)-N-(2-hydroxyethyl)-N-phenyl-benzeneacetamide], in the series with B16-F10 cells (drug 1.0 μM), the relative viability result is “without reducing cell viability”. In addition, the “cytotoxicity (relative viability)” value with B16-F10 cells (drug at various concentrations) was “did not show toxic effects up to 10 μM”. In series [1], the “cellular TYR activity” value was “attenuated; also recorded: only partially lowered by 10 µM K8”. The pIC50 on murine TYR (B16F10 cell-free extract, L-tyrosine plus L-DOPA) was 5.82; on human TYR (HEK293-TYR cell-free extract, L-tyrosine plus L-DOPA), 5.96. Besides, the “inhibition type (Lineweaver–Burk plots)” value at murine TYR (murine TYR, varying substrate concentrations) is reported as “competitive type of inhibition”. Moreover, the “relative melanin synthesis (OD 400 nm)” value in series [2] (drug 1.0 μM) is reported as “markedly inhibited cellular melanin synthesis”. Also, in series [2] (drug at varied concentrations), the “melanin synthesis (OD 400)” value is “attenuated by both drugs in a dose-dependent manner; also recorded: suppressed almost all melanin synthesis”. Besides, at human TYR (each drug at 1.0 μM, library screening), the “human TYR inhibitory effect” value is “potent TYR inhibitory effects”. The compound also had a copper ions chelated in series [3] of 27%.
